Measured values published in patent US8030499B2, “1,3-dihydro-2H-indole-2-one compound and pyrrolidine-2-one compound fused with aromatic heterocycle” (Taisho Pharmaceutical Co., Ltd., priority 2005, dated 2011).

What was measured:
human V1b receptor = biological target: T1, human V1b receptor (Homo sapiens, UniProt P47901); assay: V1b receptor binding assay ([3H](Arg8)-vasopressin, crude membranes of CHO cells); conditions: for IC50: receptor binding test, human V1b, CHO cell membranes; for inhibition at 0.1 µM: 0.1 μmol/L test drug, V1b receptor binding assay, read-out: Rate of inhibition (V1b: % of inhibition)
T1 construct: expressed in transfected cells; host or cells: CHO cells
T1 sequence (P47901 1-424): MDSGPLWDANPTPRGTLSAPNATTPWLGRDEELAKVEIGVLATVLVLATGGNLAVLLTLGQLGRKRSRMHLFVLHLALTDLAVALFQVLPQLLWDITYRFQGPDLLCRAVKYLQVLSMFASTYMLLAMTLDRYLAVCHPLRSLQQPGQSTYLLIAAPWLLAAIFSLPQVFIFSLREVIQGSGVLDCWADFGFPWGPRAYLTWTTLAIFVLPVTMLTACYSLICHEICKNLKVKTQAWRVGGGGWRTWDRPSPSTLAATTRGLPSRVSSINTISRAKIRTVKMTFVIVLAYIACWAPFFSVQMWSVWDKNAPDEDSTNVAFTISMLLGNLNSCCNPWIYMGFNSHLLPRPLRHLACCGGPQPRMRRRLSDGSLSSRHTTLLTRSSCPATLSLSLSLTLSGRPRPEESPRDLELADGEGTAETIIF
Procedure: (§1) A summary of the methods is given below.
(§2) Each obtained homogenate was centrifuged for 20 minutes at 50,000×g and 4° C., the sediment was resuspended in a 50 mmol/L Tris hydrochloric acid buffer solution (pH7.4, containing 10 mmol/L magnesium chloride and 0.1% bovine serum albumin), which served as a crude membrane preparation. This crude membrane preparation was added with [^3H] (Arg^8) vasopressin (final concentration: 0.1 nmol/L to 0.4 nmol/L), and each test drug (final concentration: 0.1 nmol/L to lμmol/L or 0.01 nmol/L to 0.1 μmol/L) to 22° C. for 90 minutes. After the end of the reaction, the reaction solution was filtrated using a GF/C glass fiber filter, which had been presoaked in 0.3% polyethyleneimine for two hours. After the GF/C glass fiber filter was dried sufficiently, scintillator was added, and the radioactivity on the filter was measured using a liquid scintillation counter. Binding of [^3H] (Arg^8)-vasopressin in the presence of (Arg^8)-vasopressin, in the amounts of 0.1 μmol/L in the V1b receptor binding assay and 5 μmol/L in the V1a and V2 receptor binding assay, were taken as non-specific binding, and the value obtained by subtracting non-specific binding from the total binding in the absence (Arg^8)-vasopressin served as specific binding.
In addition, regarding the V1b receptor binding assay, the value obtained by, subtracting the amount of binding in the presence of 0.1 μmol/L test drug from the total amount of binding, divided by the amount of specific binding, served as the rate of inhibition (% of inhibition) of the test drug at the concentration tested.

human V1a receptor = biological target: T2, human V1a receptor (Homo sapiens, UniProt P37288); assay: V1a receptor binding assay ([3H](Arg8)-vasopressin, crude membranes of 293FT cells); conditions: receptor binding test, 293FT cell membranes
T2 construct: expressed in transfected cells; host or cells: 293FT cells
T2 sequence (P37288 whole entry): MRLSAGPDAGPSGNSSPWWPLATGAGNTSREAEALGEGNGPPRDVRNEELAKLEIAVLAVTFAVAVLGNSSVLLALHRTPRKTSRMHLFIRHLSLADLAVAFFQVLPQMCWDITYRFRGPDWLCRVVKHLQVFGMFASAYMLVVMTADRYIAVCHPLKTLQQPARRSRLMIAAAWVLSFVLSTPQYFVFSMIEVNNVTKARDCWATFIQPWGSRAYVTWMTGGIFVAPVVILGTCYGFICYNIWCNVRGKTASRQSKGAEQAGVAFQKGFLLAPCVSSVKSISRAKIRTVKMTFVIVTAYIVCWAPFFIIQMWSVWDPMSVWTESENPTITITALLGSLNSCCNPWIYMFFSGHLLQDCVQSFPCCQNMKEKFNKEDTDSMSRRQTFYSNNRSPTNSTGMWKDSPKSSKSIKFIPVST
Procedure: as §1, §2

human V2 receptor = biological target: T3, human V2 receptor (Homo sapiens, UniProt P30518); assay: V2 receptor binding assay ([3H](Arg8)-vasopressin, crude membranes of 293FT cells); conditions: receptor binding test, human V2, 293FT cell membranes
T3 construct: expressed in transfected cells; host or cells: 293FT cells
T3 sequence (P30518 whole entry): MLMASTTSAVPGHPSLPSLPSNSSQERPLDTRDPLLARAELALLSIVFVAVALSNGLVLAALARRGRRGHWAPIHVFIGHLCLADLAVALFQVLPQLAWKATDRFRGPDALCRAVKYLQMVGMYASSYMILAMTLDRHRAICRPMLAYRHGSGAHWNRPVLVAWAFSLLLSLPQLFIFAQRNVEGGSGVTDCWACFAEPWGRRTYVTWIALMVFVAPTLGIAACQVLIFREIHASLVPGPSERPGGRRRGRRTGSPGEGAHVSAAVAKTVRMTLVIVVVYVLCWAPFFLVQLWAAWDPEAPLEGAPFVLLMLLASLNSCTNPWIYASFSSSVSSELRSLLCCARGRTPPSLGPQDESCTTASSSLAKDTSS
Procedure: as §1, §2

Row | IC50 (human V1b receptor) [nM] | IC50 (human V1a receptor) [nM] | IC50 (human V2 receptor) [nM] | inhibition at 0.1 µM (human V1b receptor) [%] | Compound
1 | 2.6 | 743 | 4010 | – | COc1ccc(S(=O)(=O)N2C(=O)C(c3ccccc3OC)(N3C[C@H](O)C[C@H]3C(=O)N(C)C)c3cc(Cl)ccc32)c(OC(F)(F)F)c1 (single isomer, unassigned) [Example 2]
2 | – | – | – | 103 | COc1ccc(S(=O)(=O)N2C(=O)C(c3cc(C)ccc3OC)(N3C[C@H](OCCCO)C[C@H]3C(=O)N(C)C)c3cc(Cl)ccc32)c(OC(F)(F)F)c1 (stereo partly drawn) [Example 139, (4R)-1-(5-chloro-3-(2-methoxy-5-methylphenyl)-1-{[4-methoxy-2-(trifluoromethoxy)phenyl]sulfonyl}-2-oxo-2,3-dihydro-1H-indol-3-yl)-4-(3-hydroxypropoxy)-N,N-dimethyl-L-prolinamide]
3 | – | – | – | 95 | COc1ccc(S(=O)(=O)N2C(=O)C(c3cc(C)ccc3OC)(N3C[C@H](OCCC(N)=O)C[C@H]3C(=O)N(C)C)c3cc(Cl)ccc32)c(OC(F)(F)F)c1 (stereo partly drawn) [Example 144, (4R)-4-(3-amino-3-oxopropoxy)-1-(5-chloro-3-(2-methoxy-5-methylphenyl)-1-{[4-methoxy-2-(trifluoromethoxy)phenyl]sulfonyl}-2-oxo-2,3-dihydro-1H-indol-3-yl)-N,N-dimethyl-L-prolinamide]
4 | – | – | – | 85 | COc1ccc(S(=O)(=O)N2C(=O)C(c3cc(C)ccc3OC)(N3C[C@H](OCC(=O)O)C[C@H]3C(=O)N(C)C)c3cc(Cl)ccc32)c(OC(F)(F)F)c1 (stereo partly drawn) [Example 148, ({(3R,5S)-1-(5-chloro-3-(2-methoxy-5-methylphenyl)-1-{[4-methoxy-2-(trifluoromethoxy)phenyl]sulfonyl}-2-oxo-2,3-dihydro-1H-indol-3-yl)-5-[(dimethylamino)carbonyl]pyrrolidin-3-yl}oxy)acetic acid]
5 | – | – | – | 89 | COc1ccc(S(=O)(=O)N2C(=O)C(c3cc(C)ccc3OC)(N3C[C@H](OCC(O)CO)C[C@H]3C(=O)N(C)C)c3cc(Cl)ccc32)c(OC(F)(F)F)c1 (stereo partly drawn) [Example 150, (4R)-1-(5-chloro-3-(2-methoxy-5-methylphenyl)-1-{[4-methoxy-2-(trifluoromethoxy)phenyl]sulfonyl}-2-oxo-2,3-dihydro-1H-indol-3-yl)-4-(2,3-dihydroxypropoxy)-N,N-dimethyl-L-prolinamide]
6 | – | – | – | 78 | COc1ccc(S(=O)(=O)N2C(=O)C(c3cc(C)ccc3OC)(N3C[C@H](O)C[C@H]3C(=O)N(CCO)CCO)c3cc(Cl)ccc32)c(OC(F)(F)F)c1 (stereo partly drawn) [Example 161, (4R)-1-(5-chloro-3-(2-methoxy-5-methylphenyl)-1-{[4-methoxy-2-(trifluoromethoxy)phenyl]sulfonyl}-2-oxo-2,3-dihydro-1H-indol-3-yl)-4-hydroxy-N,N-bis(2-hydroxyethyl)-L-prolinamide]
7 | – | – | – | 105 | CNCc1ccc(OC)c(C2(N3C[C@H](O)C[C@H]3C(=O)N(C)C)C(=O)N(S(=O)(=O)c3ccc(OC)cc3OC(F)(F)F)c3ccc(Cl)cc32)c1 (stereo partly drawn) [Example 206, (4R)-1-(5-chloro-3-{2-methoxy-5-[(methylamino)methyl]phenyl}-1-{[4-methoxy-2-(trifluoromethoxy)phenyl]sulfonyl}-2-oxo-2,3-dihydro-1H-indol-3-yl)-4-hydroxy-N,N-dimethyl-L-prolinamide]
8 | – | – | – | 102 | COc1ccc(S(=O)(=O)N2C(=O)C(c3cc(CCN(C)C)ccc3OC)(N3C[C@H](O)C[C@H]3C(=O)N(C)C)c3cc(Cl)ccc32)c(OC(F)(F)F)c1 (stereo partly drawn) [Example 221, (4R)-1-(5-chloro-3-{5-[2-(dimethylamino)ethyl]-2-methoxyphenyl}-1-{[4-methoxy-2-(trifluoromethoxy)phenyl]sulfonyl}-2-oxo-2,3-dihydro-1H-indol-3-yl)-4-hydroxy-N,N-dimethyl-L-prolinamide]

Further lines, the molecule ahead of its results:

Row | Compound | IC50 (human V1b receptor) [nM] | IC50 (human V1a receptor) [nM] | IC50 (human V2 receptor) [nM] | inhibition at 0.1 µM (human V1b receptor) [%]
9 | COc1ccc(S(=O)(=O)N2C(=O)C(c3ccccc3OC)(N3CCC[C@H]3C(=O)N(C)C)c3cc(Cl)ccc32)c(OC(F)(F)F)c1 (single isomer, unassigned) [Example 5, 1-(5-chloro-3-(2-methoxyphenyl)-1-{[4-methoxy-2-(trifluoromethoxy)phenyl]sulfonyl}-2-oxo-2,3-dihydro-1H-indol-3-yl)-N,N-dimethyl-L-prolinamide] | 16 | 2180 | > 10000 | –
10 | COc1ccc(S(=O)(=O)N2C(=O)C(c3ccccc3OC)(N3CCCC[C@H]3C(=O)N(C)C)c3cc(Cl)ccc32)c(OC(F)(F)F)c1 (single isomer, unassigned) [Example 31] | 5.2 | 953 | > 10000 | –
11 | COc1ccc(S(=O)(=O)N2C(=O)C(c3ccccc3OC)(N3Cc4ccccc4C[C@H]3C(=O)N(C)C)c3cc(Cl)ccc32)c(OC(F)(F)F)c1 (single isomer, unassigned) [Example 38 A] | 31 | > 10000 | > 10000 | –
12 | COc1ccc(S(=O)(=O)N2C(=O)C(c3ccccc3OC)(N3CCOC[C@H]3C(=O)N(C)C)c3cc(Cl)ccc32)c(OC(F)(F)F)c1 (single isomer, unassigned) [Example 41] | 7.1 | 3760 | > 10000 | –
13 | COc1ccc(S(=O)(=O)N2C(=O)C(N[C@@H](C)C(=O)N(C)C)(c3ccccc3OC)c3cc(Cl)ccc32)c(OC(F)(F)F)c1 (single isomer, unassigned) [Example 61] | 15 | 1470 | > 10000 | –
14 | COc1ccc(S(=O)(=O)N2C(=O)C(c3ccccc3OC)(N(C)[C@@H](C)C(=O)N(C)C)c3cc(Cl)ccc32)c(OC(F)(F)F)c1 (single isomer, unassigned) [Example 71] | 6.3 | 4050 | > 10000 | –
15 | COc1ccc(S(=O)(=O)N2C(=O)C(O[C@@H](C)C(=O)N(C)C)(c3ccccc3OC)c3cc(Cl)ccc32)c(OC(F)(F)F)c1 (single isomer, unassigned) [Example 81] | 18 | 677 | > 10000 | –
16 | COc1ccc(S(=O)(=O)N2C(=O)C(c3cccc4c3OCC4)(N3CCCC[C@H]3C(=O)N(C)C)c3cc(Cl)ccc32)c(OC(F)(F)F)c1 (stereo partly drawn) [Example 90, (2S)-1-(5-chloro-3-(2,3-dihydro-1-benzofuran-7-yl)-1-{[4-methoxy-2-(trifluoromethoxy)phenyl]sulfonyl}-2-oxo-2,3-dihydro-1H-indol-3-yl)-N,N-dimethylpiperidine-2-carboxamide] | – | – | – | 97
17 | COc1ccc(S(=O)(=O)N2C(=O)C(c3cc(C)ccc3OC)(N3CCN(c4ccncc4)CC3C(=O)N(C)C)c3cc(Cl)ccc32)c(OC(F)(F)F)c1 (stereo not drawn) [Example 112, 1-(5-chloro-3-(2-methoxy-5-methylphenyl)-1-{[4-methoxy-2-(trifluoromethoxy)phenyl]sulfonyl}-2-oxo-2,3-dihydro-1H-indol-3-yl)-N,N-dimethyl-4-pyridin-4-yl piperazine-2-carboxamide] | – | – | – | 55
18 | CCN(C)CCCO[C@@H]1C[C@@H](C(=O)N(C)C)N(C2(c3cc(C)ccc3OC)C(=O)N(S(=O)(=O)c3ccc(OC)cc3OC(F)(F)F)c3ccc(Cl)cc32)C1 (stereo partly drawn) [Example 152, (4R)-1-(5-chloro-3-(2-methoxy-5-methylphenyl)-1-{[4-methoxy-2-(trifluoromethoxy)phenyl]sulfonyl}-2-oxo-2,3-dihydro-1H-indol-3-yl)-4-{3-[ethyl(methyl)amino]propoxy}-N,N-dimethyl-L-prolinamide] | – | – | – | 107
19 | COc1ccc(S(=O)(=O)N2C(=O)C(c3cc(C)ccc3OC)(N3C[C@H](OCCCN4CCN(C)CC4)C[C@H]3C(=O)N(C)C)c3cc(Cl)ccc32)c(OC(F)(F)F)c1 (stereo partly drawn) [Example 154, (4R)-1-(5-chloro-3-(2-methoxy-5-methylphenyl)-1-{[4-methoxy-2-(trifluoromethoxy)phenyl]sulfonyl}-2-oxo-2,3-dihydro-1H-indol-3-yl)-N,N-dimethyl-4-[3-(4-methylpiperazin-1-yl)propoxy]-L-prolinamide] | – | – | – | 100
20 | COc1ccc(S(=O)(=O)N2C(=O)C(c3cc(C)cnc3OC)(N3C[C@H](O)C[C@H]3C(=O)N(C)C)c3cc(Cl)ccc32)c(OC)c1OC (stereo partly drawn) [Example 173, (4R)-1-{5-chloro-3-(2-methoxy-5-methylpyridin-3-yl)-2-oxo-1-[(2,3,4-trimethoxyphenyl)sulfonyl]-2,3-dihydro-1H-indol-3-yl}-4-hydroxy-N,N-dimethyl-L-prolinamide] | – | – | – | 104
